# Patent US20100267561A1, “HERBICIDAL PYRIDAZINONE DERIVATIVES” (priority 2007, published 2010)
# Columns and labels:
# Test in all cases: Test B pre-/postemergence plant response
# Type in all cases: in vivo
# corn (Zea mays) = test system: corn (Zea mays)
# Procedure, shortened: (§1)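 Seeds were sown and sprayed preemergence, while plants at 2 to 18 cm (1- to 4-leaf stage) got postemergence sprays. Compounds were formulated in a non-phytotoxic solvent mixture with surfactant. After 13 to 15 days in a greenhouse, injury was rated visually against untreated controls, 0 (no effect) to 100 (complete control).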
# [1] = test system: pigweed (Amaranthus retroflexus)
# Procedure, shortened: as §1
# [2] = test system: catchweed bedstraw (Galium aparine); conditions: Preemergence, scale 0 to 100
# Procedure, shortened: as §1
# [3] = test system: common (oilseed) sunflower (Helianthus annuus); conditions: Preemergence
# Procedure, shortened: as §1
# kochia (Kochia scoparia) = test system: kochia (Kochia scoparia)
# Procedure, shortened: as §1
# [4] = test system: surinam grass (Brachiaria decumbens)
# Procedure, shortened: as §1
# [5] = test system: johnsongrass (Sorghum halepense)
# Procedure, shortened: as §1
# [6] = test system: blackgrass (Alopecurus myosuroides); conditions: for Blackgrass plant response rating: 8 g ai/ha
# Procedure, shortened: as §1
# [7] = test system: giant foxtail (Setaria faberii)
# Procedure, shortened: as §1
# [8] = test system: eastern black (E.B.) nightshade (Solanum ptycanthum); conditions: Preemergence
# Procedure, shortened: as §1
# [9] = test system: woolly cupgrass (Eriochloa villosa)
# Procedure, shortened: as §1
# [10] = test system: downy bromegrass (Bromus tectorum); conditions: for Bromegrass, Downy plant response rating: 8 g ai/ha
# Procedure, shortened: as §1
# [11] = test system: morningglory (Ipomoea coccinea)
# Procedure, shortened: as §1
# [12] = test system: green foxtail (Setaria viridis)
# Procedure, shortened: as §1
# [13] = 8 g ai/ha, postemergence, 0-100 scale
# [14] = Postemergence, 16 g ai/ha, scale 0 to 100
# [15] = Postemergence, 31 g ai/ha, scale 0 to 100
# [16] = Postemergence, 62 g ai/ha, scale 0 to 100, 0 no effect, 100 complete control
# [17] = Preemergence, 31 g ai/ha, 0 to 100 scale, 0 no effect, 100 complete control
# [18] = Preemergence, 62 g ai/ha, scale 0 to 100
# [19] = Preemergence, 8 g ai/ha, scale 0 to 100
# [20] = Preemergence, 16 g ai/ha, scale 0 to 100
# [21] = Preemergence, 31 g ai/ha, scale 0 to 100 (0 no effect, 100 complete control)
# [22] = 31 g ai/ha, scale 0 to 100 (0 no effect, 100 complete control)
# [23] = Preemergence, 16 g ai/ha, scale 0 to 100 (0 no effect, 100 complete control)
smiles,measurement,setting,value
Cc1cc(-c2ccc(Cl)cc2)nn1-c1c(OC(=O)c2cccs2)cnn(C)c1=O [Compound 52],Corn plant response rating,corn (Zea mays); [13],85
same,"Plant response rating, Corn",corn (Zea mays); [14],98
same,"Plant response rating, Corn",corn (Zea mays); [15],98
same,"Plant response rating, Corn",corn (Zea mays); [16],98
same,"Plant response rating, Corn",corn (Zea mays); [17],70
same,"Plant response rating, Corn",corn (Zea mays); [18],75
same,Corn plant response rating,corn (Zea mays); [19],0
same,Corn plant response rating,corn (Zea mays); [20],55
same,Pigweed plant response rating,[1]; [13],0
same,"Plant response rating, Pigweed",[1]; [14],0
same,"Plant response rating, Pigweed",[1]; [15],0
same,"Plant response rating, Pigweed",[1]; [16],0
same,"Plant response rating, Pigweed",[1]; [21],0
same,"Plant response rating, Pigweed",[1]; [18],0
same,Pigweed plant response rating,[1]; [19],0
same,Pigweed plant response rating,[1]; [20],0
same,"Plant response rating, Galium",[2]; 62 g ai/ha,0
same,Galium plant response rating,[2]; 8 g ai/ha,0
same,Galium plant response rating,[2]; 16 g ai/ha,0
same,"Plant response rating, Sunflower",[3]; [22],0
same,"Plant response rating, Sunflower","[3]; 62 g ai/ha, scale 0 to 100",0
same,Sunflower plant response rating,"[3]; 8 g ai/ha, scale 0 to 100",0
same,Sunflower plant response rating,"[3]; 16 g ai/ha, scale 0 to 100",0
same,Kochia plant response rating,kochia (Kochia scoparia); [13],0
same,"Plant response rating, Kochia",kochia (Kochia scoparia); [14],0
same,"Plant response rating, Kochia",kochia (Kochia scoparia); [15],0
same,"Plant response rating, Kochia",kochia (Kochia scoparia); [16],0
same,"Plant response rating, Kochia",kochia (Kochia scoparia); [18],85
same,Kochia plant response rating,kochia (Kochia scoparia); [19],0
same,Kochia plant response rating,kochia (Kochia scoparia); [20],0
same,Surinam Grass plant response rating,[4]; [13],70
same,"Plant response rating, Surinam Grass",[4]; [14],85
same,"Plant response rating, Surinam Grass",[4]; [15],100
same,"Plant response rating, Surinam Grass",[4]; [16],100
same,"Plant response rating, Surinam Grass",[4]; [21],25
same,"Plant response rating, Surinam Grass","[4]; Preemergence, 62 g ai/ha, 0 to 100 scale, 0 no effect, 100 complete control",100
same,Surinam Grass plant response rating,[4]; [19],0
same,Surinam Grass plant response rating,[4]; [20],0
same,Johnsongrass plant response rating,[5]; [13],75
same,"Plant response rating, Johnsongrass",[5]; [14],80
same,"Plant response rating, Johnsongrass",[5]; [15],90
same,"Plant response rating, Johnsongrass",[5]; [16],95
same,"Plant response rating, Johnsongrass",[5]; [17],80
same,"Plant response rating, Johnsongrass",[5]; [18],85
same,Johnsongrass plant response rating,[5]; [19],55
same,Johnsongrass plant response rating,[5]; [20],65
same,Blackgrass plant response rating,"[6]; postemergence, 0-100 scale",50
same,"Plant response rating, Blackgrass",[6]; [14],70
same,"Plant response rating, Blackgrass",[6]; [15],95
same,"Plant response rating, Blackgrass",[6]; [16],95
same,"Plant response rating, Blackgrass",[6]; [23],95
same,"Plant response rating, Blackgrass",[6]; [17],100
same,"Plant response rating, Blackgrass",[6]; [18],100
same,Blackgrass plant response rating,"[6]; Preemergence, scale 0 to 100",0
same,"Foxtail, Giant plant response rating",[7]; [13],85
same,"Plant response rating, Foxtail, Giant",[7]; [14],98
same,"Plant response rating, Foxtail, Giant",[7]; [15],100
same,"Plant response rating, Foxtail, Giant",[7]; [16],100
same,"Plant response rating, Foxtail, Giant",[7]; [17],0
same,"Plant response rating, Foxtail, Giant",[7]; [18],98
same,"Foxtail, Giant plant response rating",[7]; [19],0
same,"Foxtail, Giant plant response rating",[7]; [20],0
same,"Plant response rating, Nightshade, E. B.",[8]; [22],0
same,"Plant response rating, Nightshade, E. B.","[8]; 62 g ai/ha, scale 0 to 100",0
same,"Nightshade, E. B. plant response rating","[8]; 8 g ai/ha, scale 0 to 100",0
same,"Nightshade, E. B. plant response rating","[8]; 16 g ai/ha, scale 0 to 100",0
same,"Cupgrass, Woolly plant response rating",[9]; [13],75
same,"Plant response rating, Cupgrass, Woolly",[9]; [14],90
same,"Plant response rating, Cupgrass, Woolly",[9]; [15],95
same,"Plant response rating, Cupgrass, Woolly",[9]; [16],100
same,"Plant response rating, Cupgrass, Woolly",[9]; [17],0
same,"Plant response rating, Cupgrass, Woolly",[9]; [18],0
same,"Cupgrass, Woolly plant response rating",[9]; [19],0
same,"Cupgrass, Woolly plant response rating",[9]; [20],0
same,"Bromegrass, Downy plant response rating","[10]; postemergence, 0-100 scale",30
same,"Plant response rating, Bromegrass, Downy",[10]; [14],30
same,"Plant response rating, Bromegrass, Downy",[10]; [15],40
same,"Plant response rating, Bromegrass, Downy",[10]; [16],70
same,"Plant response rating, Bromegrass, Downy",[10]; [23],35
same,"Plant response rating, Bromegrass, Downy",[10]; [17],35
same,"Plant response rating, Bromegrass, Downy",[10]; [18],80
same,"Bromegrass, Downy plant response rating","[10]; Preemergence, scale 0 to 100",0
same,Morningglory plant response rating,[11]; [13],0
same,"Plant response rating, Morningglory",[11]; [14],0
same,"Plant response rating, Morningglory",[11]; [15],0
same,"Plant response rating, Morningglory",[11]; [16],0
same,"Plant response rating, Morningglory",[11]; [21],90
same,"Plant response rating, Morningglory",[11]; [18],100
same,Morningglory plant response rating,[11]; [19],0
same,Morningglory plant response rating,[11]; [20],0
same,"Foxtail, Green plant response rating",[12]; [13],80
same,"Plant response rating, Foxtail, Green",[12]; [14],95
same,"Plant response rating, Foxtail, Green",[12]; [15],98
same,"Plant response rating, Foxtail, Green",[12]; [16],100
same,"Plant response rating, Foxtail, Green",[12]; [17],100
same,"Plant response rating, Foxtail, Green",[12]; [18],100
same,"Foxtail, Green plant response rating",[12]; [19],90
same,"Foxtail, Green plant response rating",[12]; [20],90
